Measurements: US6610721B2, “Imidazo heterocyclic compounds” (Novo Nordisk A/S, priority 2000, dated 2003)
Where a name gives a salt, the structure may show the parent alone.

Work on `N#Cc1ccc(OCC2CCCc3[nH]cnc32)c(Cl)c1` (centres unmarked) (as salt: hydrochloride) yielded a melting point of 225 to 227 °C.
`Cc1cc(C#N)cc(C)c1OCC1CCCc2[nH]cnc21` (centres unmarked) (as salt: hydrochloride) gave a melting point of 190 to 192 °C.
`FC(F)(F)c1ccc(OCC2CCCc3[nH]cnc32)cc1` (centres unmarked) (as salt: hydrochloride) showed a melting point of 242 to 244 °C.
`O=C(c1ccc(OCC2CCCc3[nH]cnc32)cc1)C1CC1` (centres unmarked) (as salt: hydrochloride) [Example 63, Cyclopropyl-[4-(4,5,6,7-tetrahydro-1H-benzimidazol-4-ylmethoxy)phenyl]methanone, hydrochloride] showed a melting point of 211 to 213 °C.
For `Cl.c1ccc(-c2cccc(OCC3CCc4[nH]cnc4C3)c2)cc1` (centres unmarked), the melting point was 165 to 167 °C.
`Clc1ccc(OCC2CCCc3[nH]cnc32)cc1` (centres unmarked) (as salt: hydrochloride) showed a melting point of 210 to 212 °C.
`O=C1CCCc2c(OCC3CCCc4[nH]cnc43)cccc21` (centres unmarked) (as salt: hydrochloride) gave a melting point of 237 to 240 °C.
`N#Cc1ccc(OCC2CCCCc3[nH]cnc32)cc1` (centres unmarked) (as salt: hydrochloride) [Example 57, 4-(1,4,5,6,7,8-Hexahydrocycloheptaimidazol-4-ylmethoxy)benzonitrile, Hydrochloride] showed a melting point of 232 to 235 °C.
`Cl.Fc1ccccc1OCC1CCc2[nH]cnc2C1` (centres unmarked) gave a melting point of 192 to 194 °C.
With `Cl.FC(F)(F)Oc1cccc(OCC2CCc3[nH]cnc3C2)c1` (centres unmarked) the melting point was 170 to 171 °C.
For `COc1cc(C#N)ccc1OCC1CCCc2[nH]cnc21` (centres unmarked) (as salt: hydrochloride), the melting point was 193 to 195 °C.
For `FC(F)(F)Oc1ccc(OCC2CCCc3[nH]cnc32)cc1` (centres unmarked) (as salt: hydrochloride) [Example 58, 4-(4-Trifluoromethoxyphenoxymethyl)-4,5,6,7-tetrahydro-1H-benzimidazole, Hydrochloride], the melting point was 202 to 209 °C.
Molecule `Cl.Clc1ccccc1OCC1CCCc2[nH]cnc21` (centres unmarked) has a melting point of 207 to 209 °C.
Work on `Cl.Clc1ccccc1OCC1CCc2[nH]cnc2C1` (centres unmarked) yielded a melting point of 224 to 226 °C.
